Results taken from patent US20120087985A1, “SMALL PEPTIDE SEQUENCES FOR STABILIZING BIOMOLECULES” (Biodel Inc., priority 2010, published 2012).

Experiments:
[1] = target: Glucagon (Homo sapiens, UniProt P01275); assay: Entrapment and precipitation of glucagon in SPS particles; assay type: physicochemical
Source text: Synthesis of SPS and Precipitation of Glucagon
These sequences are soluble at very low pH and form microparticles that trap peptides in solution within the particles. They remain intact at pH 3-5 in the vicinity of their isoelectric point. Solubility increases in the physiological pH range.

[2] = target: Glucose oxidase (Aspergillus niger, UniProt P13006); assay: Stabilization and precipitation of glucose oxidase by SPS; assay type: physicochemical
[3] = pH of the solution brought to neutral

Sequence of Glucagon (P01275 53-81 limits assumed, species assumed): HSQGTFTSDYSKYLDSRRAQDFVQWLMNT
Sequence of Glucose oxidase (P13006 17-605, species assumed): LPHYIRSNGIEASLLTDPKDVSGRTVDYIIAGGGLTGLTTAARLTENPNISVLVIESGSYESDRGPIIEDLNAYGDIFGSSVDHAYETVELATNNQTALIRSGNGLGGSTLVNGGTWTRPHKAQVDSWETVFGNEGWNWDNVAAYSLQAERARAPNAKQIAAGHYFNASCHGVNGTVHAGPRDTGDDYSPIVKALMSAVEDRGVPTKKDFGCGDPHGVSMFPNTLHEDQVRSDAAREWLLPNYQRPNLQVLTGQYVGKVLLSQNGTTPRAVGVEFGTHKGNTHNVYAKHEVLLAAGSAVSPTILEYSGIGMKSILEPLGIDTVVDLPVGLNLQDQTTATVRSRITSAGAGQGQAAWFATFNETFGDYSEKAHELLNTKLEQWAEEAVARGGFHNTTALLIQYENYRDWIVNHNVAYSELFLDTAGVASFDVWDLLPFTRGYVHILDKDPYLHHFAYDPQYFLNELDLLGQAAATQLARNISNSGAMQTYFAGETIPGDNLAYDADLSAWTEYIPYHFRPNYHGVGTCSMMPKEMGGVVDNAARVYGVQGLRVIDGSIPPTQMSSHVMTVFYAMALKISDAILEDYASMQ

In the case of “H-Aspartic Acid-Tryptophan-Aspartic Acid —OH”, the “glucagon remained in the particles (entrapment efficiency)” value ([1]; glucagon entrapped in SPS particles) is reported as “more than 60%”, the stabilization of glucagon ([1]; in aqueous solution) is reported as “stabilized it in aqueous solution” and the release of glucagon [1, 3] is reported as “released the glucagon intact”. For the same substance, the “stabilization and precipitation of glucose oxidase” value ([2]; in aqueous solution, stored along with insulin glargine at a pH of 4) was “stabilized and precipitated” and the “release of glucose oxidase” value [2, 3] was “released intact”.
